Like-named read-outs stand apart in the source and are kept apart here. Some results are limits rather than exact numbers.

The source of these data is US11472805B2, “Tricyclic compounds and their use as phosphodiesterase inhibitors” (Pfizer Inc., priority 2015, dated 2022).

Common to all, as to format: biochemical
For one assay, the target named is Human PDE4C1 (Homo sapiens (Human), UniProt Q08493). Nature of the assay: PDE4C1 Scintillation Proximity Assay (SPA), inhibition of enzyme activity. The note with it: Table 9, geometric mean of 2-9 determinations unless otherwise indicated, read-out: Human PDE4C FL. On the procedure:
(§1) The PDE4A, PDE4B, PDE4C and PDE4D binding affinity for the compounds of the present invention was determined utilizing the following biological assay(s):
(§2) The recombinant Bacmid was isolated and used to transfect insect cells to generate a viral stock. To generate cell paste for purification, insect cells were infected with the virus stock and cells were harvested 72 hours after infection. Insect cell paste was lysed and after centrifugation, the supernatant was batch bound to Ni-NTA agarose (GE Healthcare) and eluted with 250 mM imidazole. This eluate was diluted with FLAG buffer (50 mM Tris HCL pH 7.5, 100 mM NaCl, 5% Glycerol, 1 mM TCEP with protease inhibitors) and batch bound to ant-FLAG M2 agarose (Sigma) overnight at 4° C. The agarose was packed into a column, washed with buffer and eluted with buffer containing elute using 250 ug/ml Flag-peptide. Fractions were analyzed using SDS-PAGE Coomassie blue staining and pooled based on purity. Pooled fractions were chromatographed on a S200 120 ml column (GE Healthcare) in 50 mM Tris HCL pH 7.5, 150 mM NaCl, 10% Glycerol, 2 mM TCEP with protease inhibitors. PDE4C1 fractions were analyzed by SDS-PAGE Coomassie blue staining, pooled based on purity, dialyzed against 50 mM Tris HCL pH 7.5, 100 mM NaCl, 20% Glycerol, 2 mM TCEP, frozen and stored at −80° C.
(§3) The PDE4A3, PDE4B1, PDE4C1 and PDE4D3 assays use the Scintillation Proximity Assay (SPA) technology to measure the inhibition of human recombinant PDE4A1, PDE4B3, PDE4C1, and PDE4D3 enzyme activity by compounds in vitro. The PDE4A1, PDE4B3, PDE4C1, and PDE4D3 assays are run in parallel using identical parameters, except for the concentration of enzyme ([…]). The assays are performed in a 384-well format with 50 uL assay buffer (50 mM TRIS pH7.5; 1.3 mM MgCl2; 0.01% Brij) containing enough PDE4A3, PDE4B1, PDE4C1, and PDE4D to convert ˜20% of substrate (1 μM cAMP consisting of 20 nM 3H-cAMP+[…] cold cAMP) and a range of inhibitors. Reactions are incubated for 30 min at 25° C. The addition of 20 uL of 8 mg/ml yitrium silicate SPA beads (Perkin Elmer) stops the reaction. The plates are sealed (TopSeal, Perkin Elmer) and the beads are allowed to settle for 8 hrs, after which they are read on the Trilux Microbeta overnight.
In general terms: In a scintillation proximity assay essentially only radioactivity close to the scintillant gives light.

Another assay concerns the target human PDE4D3 (Homo sapiens (Human), UniProt Q08499). Nature of the assay: PDE4D3 Scintillation Proximity Assay (SPA), inhibition of enzyme activity. To be noted: read-out: Human PDE4D FL. How it is done:
as §1
A portion of the human PDE4D3 coding sequence (amino acids 50 to 672 from the sequence with accession number Q08499-2) was cloned into the baculovirus expression vector pFastBac (Invitrogen) engineered to include a C-terminal His6 affinity tag to aid in purification as described in Seeger, T. F. et al., Brain Research 985 (2003) 113-126. The recombinant Bacmid was isolated and used to transfect insect cells to generate a viral stock. To generate cell paste for purification, insect cells were infected and cells were harvested 72 hours after infection. Insect cell paste was lysed and after centrifugation, the supernatant was chromatographed on Ni-NTA agarose (Qiagen) as described in Seeger, T. F. et al., Brain Research 985 (2003) 113-126. Ni-NTA agarose eluting fractions containing PDE4 were pooled, diluted with Q Buffer A (50 mM Tris HCl pH 8, 4% glycerol, 100 mM NaCl, 1 mM TCEP, Protease inhibitors EDTA-free (Roche)) to reduce NaCl to ˜200 mM, and loaded on a Q Sepharose (GE Healthcare) column. After washing with Q buffer A to baseline, PDE4D was eluted with a gradient from 10% to 60% of Buffer B (50 mM Tris HCl pH 8, 1 M NaCl, 4% glycerol, 1 mM TCEP). PDE4D fractions were analyzed by SDS-PAGE Coomassie blue staining, pooled based on purity, frozen and stored at −80° C.
as §3

The target in the next assay is Human PDE4A3 (Homo sapiens (Human), UniProt P27815). The assay can be described thus: PDE4A3 Scintillation Proximity Assay (SPA), inhibition of enzyme activity. To be noted: read-out: Human PDE4A FL. How it is done:
as §1
as §2, with “PDE4A3” for “PDE4C1”
as §3

A further assay concerns the target Human PDE4B1 (Homo sapiens (Human), UniProt Q07343, S133E/S654A/S659A/S661A). Nature of the assay: PDE4B1 Scintillation Proximity Assay (SPA), inhibition of enzyme activity. To be noted: read-out: Human PDE4B FL. How it is done:
as §1
The recombinant Bacmid was isolated and used to transfect insect cells to generate a viral stock. To generate cell paste for purification, insect cells were infected with the virus stock and cells were harvested 72 hours after infection as described in Seeger, T. F. et al., Brain Research 985 (2003) 113-126. Insect cell paste was lysed and after centrifugation, the supernatant was chromatographed on Ni-NTA agarose (Qiagen) as described in Seeger, T. F. et al., Brain Research 985 (2003) 113-126. Ni-NTA agarose eluting fractions containing PDE4 were pooled, diluted with Q buffer A (20 mM Tris HCl pH 8, 5% glycerol, 1 mM TCEP) to reduce NaCl to ˜100 mM and loaded on a Source 15Q (GE Healthcare) column. After washing with Q buffer A/10% buffer B to baseline, PDE4D was eluted with a gradient from 10% to 60% of Buffer B (20 mM Tris HCl pH 8, 1 M NaCl, 5% glycerol, 1 mM TCEP). PDE4D fractions were analyzed by SDS-PAGE Coomassie blue staining, pooled based on purity, frozen and stored at −80° C.
as §3

Setting [1] is: Table 9, geometric mean of 2-9 determinations unless otherwise indicated.
Setting [2] is: Table 10, geometric mean of 2-9 determinations unless otherwise indicated.

Chain of Human PDE4A3 (P27815 other isoform, or with tags, fused parts or gaps): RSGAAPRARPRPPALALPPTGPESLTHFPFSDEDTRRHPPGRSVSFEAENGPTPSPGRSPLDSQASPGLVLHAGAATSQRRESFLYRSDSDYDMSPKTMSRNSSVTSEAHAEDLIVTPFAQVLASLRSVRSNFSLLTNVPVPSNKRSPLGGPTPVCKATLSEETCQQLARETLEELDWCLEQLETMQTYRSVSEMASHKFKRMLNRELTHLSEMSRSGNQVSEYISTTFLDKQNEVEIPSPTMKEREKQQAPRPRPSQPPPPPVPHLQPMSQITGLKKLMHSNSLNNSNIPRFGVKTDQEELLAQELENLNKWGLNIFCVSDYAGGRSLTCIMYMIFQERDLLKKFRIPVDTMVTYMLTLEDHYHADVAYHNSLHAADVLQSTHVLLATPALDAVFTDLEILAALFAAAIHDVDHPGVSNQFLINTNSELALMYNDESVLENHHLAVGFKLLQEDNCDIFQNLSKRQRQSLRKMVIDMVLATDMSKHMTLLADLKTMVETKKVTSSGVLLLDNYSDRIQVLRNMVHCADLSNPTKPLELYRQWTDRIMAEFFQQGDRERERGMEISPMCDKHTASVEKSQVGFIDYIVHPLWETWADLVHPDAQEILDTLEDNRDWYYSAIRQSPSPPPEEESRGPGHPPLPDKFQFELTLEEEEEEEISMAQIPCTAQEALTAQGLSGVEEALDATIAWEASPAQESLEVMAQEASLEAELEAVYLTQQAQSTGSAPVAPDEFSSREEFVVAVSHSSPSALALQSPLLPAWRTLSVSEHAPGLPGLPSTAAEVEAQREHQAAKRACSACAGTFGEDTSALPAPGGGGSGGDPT
Chain of Human PDE4B1 (Q07343 122-736 S133E/S654A/S659A/S661A): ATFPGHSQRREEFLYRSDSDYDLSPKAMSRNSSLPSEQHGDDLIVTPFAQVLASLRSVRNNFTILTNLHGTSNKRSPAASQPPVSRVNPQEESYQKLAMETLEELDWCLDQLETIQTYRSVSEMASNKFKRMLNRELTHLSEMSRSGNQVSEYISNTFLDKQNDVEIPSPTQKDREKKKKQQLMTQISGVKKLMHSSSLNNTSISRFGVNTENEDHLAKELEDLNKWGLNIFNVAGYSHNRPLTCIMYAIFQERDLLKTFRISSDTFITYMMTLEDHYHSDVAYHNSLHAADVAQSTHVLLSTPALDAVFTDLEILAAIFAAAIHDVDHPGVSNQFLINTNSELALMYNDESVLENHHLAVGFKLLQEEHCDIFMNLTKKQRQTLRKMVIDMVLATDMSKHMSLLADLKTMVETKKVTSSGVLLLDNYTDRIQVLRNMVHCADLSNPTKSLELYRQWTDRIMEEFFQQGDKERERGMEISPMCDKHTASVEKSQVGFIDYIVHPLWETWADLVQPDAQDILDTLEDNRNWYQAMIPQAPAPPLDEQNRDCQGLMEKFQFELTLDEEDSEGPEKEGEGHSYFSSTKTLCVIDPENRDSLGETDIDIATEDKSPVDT
Chain of Human PDE4C1 (Q08493 2-712): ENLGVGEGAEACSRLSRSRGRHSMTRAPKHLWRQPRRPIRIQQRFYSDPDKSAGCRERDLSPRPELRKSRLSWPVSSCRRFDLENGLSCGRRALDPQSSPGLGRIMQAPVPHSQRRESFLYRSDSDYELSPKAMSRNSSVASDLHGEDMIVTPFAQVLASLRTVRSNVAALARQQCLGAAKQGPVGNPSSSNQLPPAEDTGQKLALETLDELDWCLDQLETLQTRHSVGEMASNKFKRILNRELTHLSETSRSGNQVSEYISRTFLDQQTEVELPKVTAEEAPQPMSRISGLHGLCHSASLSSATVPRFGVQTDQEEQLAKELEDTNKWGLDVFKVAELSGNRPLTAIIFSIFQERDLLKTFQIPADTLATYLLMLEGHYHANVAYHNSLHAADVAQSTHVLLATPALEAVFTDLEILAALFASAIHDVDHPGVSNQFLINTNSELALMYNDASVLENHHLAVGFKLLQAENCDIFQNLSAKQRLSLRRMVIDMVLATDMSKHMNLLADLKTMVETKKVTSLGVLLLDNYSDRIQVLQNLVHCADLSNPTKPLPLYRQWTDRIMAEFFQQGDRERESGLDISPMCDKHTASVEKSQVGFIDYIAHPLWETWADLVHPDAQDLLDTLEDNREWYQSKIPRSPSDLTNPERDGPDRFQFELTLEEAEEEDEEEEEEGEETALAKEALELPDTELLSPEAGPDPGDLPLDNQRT
Chain of human PDE4D3 (Q08499 186-808): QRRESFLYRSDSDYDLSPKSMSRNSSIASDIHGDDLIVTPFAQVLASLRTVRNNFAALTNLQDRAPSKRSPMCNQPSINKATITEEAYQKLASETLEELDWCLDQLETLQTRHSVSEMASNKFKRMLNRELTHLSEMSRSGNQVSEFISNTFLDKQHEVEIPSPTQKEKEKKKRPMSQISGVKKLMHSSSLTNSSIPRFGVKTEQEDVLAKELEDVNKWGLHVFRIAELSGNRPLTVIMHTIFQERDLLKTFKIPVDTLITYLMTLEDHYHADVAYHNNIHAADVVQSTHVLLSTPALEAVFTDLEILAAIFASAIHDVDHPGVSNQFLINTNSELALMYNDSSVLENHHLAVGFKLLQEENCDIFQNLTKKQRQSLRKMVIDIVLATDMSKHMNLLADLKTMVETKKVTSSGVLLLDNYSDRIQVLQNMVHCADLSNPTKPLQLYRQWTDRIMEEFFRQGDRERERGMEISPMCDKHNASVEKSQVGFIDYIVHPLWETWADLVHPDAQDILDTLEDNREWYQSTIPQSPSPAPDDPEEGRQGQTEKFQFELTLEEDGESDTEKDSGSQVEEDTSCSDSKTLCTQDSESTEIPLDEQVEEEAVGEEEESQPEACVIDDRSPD

With `O=C1c2c(-c3ccc(Cl)cc3)c3ncccc3n2CC2CCN12` (single isomer, unassigned) [Example 68], the IC50 amounted to 26 nM at Human PDE4C1, 538 nM at human PDE4D3 (setting [1]), 26 nM at Human PDE4A3 (setting [1]) and 18.5 nM on Human PDE4B1 (setting [1]).
For `O=C1c2c(-c3ccc(Cl)cc3)c3ncccc3n2CC2CCN12` (single isomer, unassigned) [Example 69], the IC50 on Human PDE4C1 was 24.3 nM; at human PDE4D3 (setting [1]), 689 nM; on Human PDE4A3 (setting [1]) it was 8.87 nM; at Human PDE4B1 (setting [1]) it was 16.3 nM.
The corresponding values for `O=C1c2c(-c3ccc(Cl)cc3)c3ncccc3n2CCN1c1ncccn1` [Example 1, 10-(4-Chlorophenyl)-8-(pyrimidin-2-yl)-7,8-dihydropyrido[2′,3′:4,5]pyrrolo[1,2-a]pyrazin-9(6H)-one] are 182 nM, 1230 nM, 18.8 nM and 16.1 nM.
On to `O=C1c2c(-c3ccc(Cl)cc3)c3ncccc3n2CCN1C1CC1` [Example 2, 10-(4-Chlorophenyl)-8-cyclopropyl-7,8-dihydropyrido[2′,3′:4,5]pyrrolo[1,2-a]pyrazin-9(6H)-one], for which the IC50 at Human PDE4C1 is 4 nM; at human PDE4D3 (setting [1]), 75.3 nM; at Human PDE4A3 (setting [1]), below 0.99 nM; at Human PDE4B1 (setting [1]) it was below 0.42 nM.
Regarding `N#Cc1ccc(-c2c3n(c4cccnc24)CCN(C2CC2)C3=O)cc1F` [Example 4, 4-(8-Cyclopropyl-9-oxo-6,7,8,9-tetrahydropyrido[2′,3′:4,5]pyrrolo[1,2-a]pyrazin-10-yl)-2-fluorobenzonitrile], the IC50 on Human PDE4C1 was 17 nM; on human PDE4D3 (setting [1]) it was 36.3 nM; at Human PDE4A3 (setting [1]), 4.66 nM; on Human PDE4B1 (setting [1]), below 0.81 nM.
On to `O=C1c2c(-c3ccc(Cl)c(F)c3)c3ncncc3n2CCN1C1CC1` [Example 7, 10-(4-Chloro-3-fluorophenyl)-8-cyclopropyl-7,8-dihydropyrazino[1′,2′: 1,5]pyrrolo[3,2-d]pyrimidin-9(6H)-one], for which the IC50 at Human PDE4C1 stood at 71.4 nM; on human PDE4D3 (setting [1]), 159 nM; on Human PDE4A3 (setting [1]), 14.3 nM; on Human PDE4B1 (setting [1]) it was 2.53 nM.
The corresponding values for `O=C1c2c(-c3ccc(Cl)c(F)c3)c3nccnc3n2CCN1C1CC1` [Example 8, 10-(4-Chloro-3-fluorophenyl)-8-cyclopropyl-7,8-dihydropyrrolo[1,2-a:4,5-b′]dipyrazin-9(6H)-one] are 13.9 nM, 88.5 nM, 1.19 nM and below 1.27 nM.
On the same counts, the results for `O=C1c2c(-c3ccc(Cl)cc3)c3cccnc3n2CCN1C1CC1` [Example 9, 5-(4-Chlorophenyl)-7-cyclopropyl-8,9-dihydropyrido[3′,2′: 4,5]pyrrolo[1,2-a]pyrazin-6(7H)-one] are 127 nM, 8190 nM, 129 nM and 298 nM.
In the case of `C[C@@H]1Cn2c(c(-c3ccc(Cl)cc3)c3ncccc32)C(=O)N1C1CC1` [Example 10, (7R)-10-(4-Chlorophenyl)-8-cyclopropyl-7-methyl-7,8-dihydropyrido[2′,3′:4,5]pyrrolo[1,2-a]pyrazin-9(6H)-one], the IC50 at Human PDE4C1 turned out to be 28.2 nM; at human PDE4D3 (setting [1]), 768 nM; at Human PDE4A3 (setting [1]), 15.5 nM; at Human PDE4B1 (setting [1]), 12.2 nM.
For `C[C@H]1Cn2c(c(-c3ccc(Cl)cc3)c3ncccc32)C(=O)N1C1CC1` [Example 11, (7S)-10-(4-Chlorophenyl)-8-cyclopropyl-7-methyl-7,8-dihydropyrido[2′,3′: 4,5]pyrrolo[1,2-a]pyrazin-9(6H)-one], the IC50 at Human PDE4C1 was below 0.57 nM; on human PDE4D3 (setting [1]) it was 28.7 nM; at Human PDE4A3 (setting [1]) it was below 0.3 nM; on Human PDE4B1 (setting [1]) it was below 0.52 nM.
For the compound `O=C1c2c(-c3ccc(Cl)cc3)c3ccccc3n2CCN1C1CC1` [Example 12, 10-(4-Chlorophenyl)-2-cyclopropyl-3,4-dihydropyrazino[1,2-a]indol-1(2H)-one], the IC50 on Human PDE4C1 came out at 23.5 nM; at human PDE4D3 (setting [1]), 3090 nM; at Human PDE4A3 (setting [1]), 12 nM; on Human PDE4B1 (setting [1]), 19.2 nM.
On the same counts, the results for `Cc1ccc(-c2c3ncccc3n3ccn(C4CC4)c(=O)c23)cc1` [Example 13, 8-Cyclopropyl-10-(4-methylphenyl)pyrido[2′,3′:4,5]pyrrolo[1,2-a]pyrazin-9(8H)-one] are 6.59 nM, 182 nM, 1.86 nM and 2.7 nM.
On the same counts, the results for `Cc1cc(C#N)ccc1-c1c2n(c3scnc13)CCN(C1CC1)C2=O` [Example 14, 4-(7-Cyclopropyl-8-oxo-5,6,7,8-tetrahydro[1,3]thiazolo[4′,5′:4,5]pyrrolo[1,2-a]pyrazin-9-yl)-3-methylbenzonitrile] are 79 nM, 2090 nM, 18.5 nM and 19.3 nM.
Consider `Cn1nc(-c2c3n(c4cccnc24)CCN(C2CC2)C3=O)nc1C(F)F` [Example 90, 8-Cyclopropyl-10-(5-(difluoromethyl)-1-methyl-1H-1,2,4-triazol-3-yl)-7,8-dihydropyrido[2′,3′:4,5]pyrrolo[1,2-a]pyrazin-9(6H)-one], for which the IC50 at human PDE4D3 (setting [2]), on Human PDE4A3 (setting [2]) and on Human PDE4B1 (setting [2]) was above 30000 nM each time.
